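Tested at 5 concentrations; 48 h exposure; 96-well plates; endpoints linearly interpolated, else capped at highest concentration. The concentration for 50% growth inhibition is given as GI50.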 Activity calls are given as the source filed them. No stated cut-off is given here; in the data, active = GI50 up to about 1.1 µM and inactive = higher.
What was measured:
Assay in all cases: inhibition of tumour cell growth, NCI panel, 48 h
A549 = system: A549
NCI-H226 = system: NCI-H226
IGROV-1 = system: IGROV-1
SNB-19 = system: SNB-19
LOX IMVI = system: LOX IMVI
SF-295 = system: SF-295
SN12C = system: SN12C
NCI-H522 = system: NCI-H522
OVCAR-8 = system: OVCAR-8
UACC-257 = system: UACC-257
EKVX = system: EKVX
TK-10 = system: TK-10
NCI-H23 = system: NCI-H23
Hs-578T = system: Hs-578T
A498 = system: A498
HOP-62 = system: HOP-62
786-0 = system: 786-0
SR = system: SR
CCRF-CEM = system: CCRF-CEM
U-251 = system: U-251

Measured: GI50

COC1CC(OC2CCC3(C)C(CCC45CCC(C6=CC(=O)OC6)C(C)(CCC43)C5=O)C2)OC(C)C1O (stereo not given)
inactive: A549 28.5 µM | NCI-H226 53.1 µM | IGROV-1 38.7 µM | SNB-19 20.3 µM | LOX IMVI 38.4 µM | SF-295 33.9 µM | SN12C 23.5 µM | NCI-H522 27.9 µM | OVCAR-8 55.8 µM | UACC-257 > 100 µM | EKVX 32.4 µM | TK-10 51.2 µM | NCI-H23 22.5 µM | Hs-578T 28.2 µM | A498 71.4 µM | HOP-62 27 µM | 786-0 23.6 µM | SR 28.1 µM | CCRF-CEM 18.4 µM | U-251 46.2 µM

CC(C)=NC(C(=O)O)C(C)(C)S (stereo not given)
inactive: A549 > 100 µM | NCI-H226 > 100 µM | IGROV-1 > 100 µM | SNB-19 > 100 µM | LOX IMVI > 100 µM | SF-295 > 100 µM | SN12C > 100 µM | NCI-H522 > 100 µM | OVCAR-8 > 100 µM | UACC-257 > 100 µM | EKVX > 100 µM | TK-10 > 100 µM | NCI-H23 > 100 µM | Hs-578T > 100 µM | A498 > 100 µM | HOP-62 > 100 µM | 786-0 > 100 µM | SR > 100 µM | CCRF-CEM > 100 µM | U-251 > 100 µM

— ChEMBL document CHEMBL1201862, “PubChem BioAssay data set” (2004)
